Experimental data published in US7015249B1, “Methods and compositions for treating diabetes” (Purdue Research Foundation, priority 1997, dated 2006).

How the values were obtained:
Assay type in all cases: cell-based
[1] = biological target: T1, ligand binding domain of mouse PPARβ (Mus musculus, UniProt P35396); assay: GAL4-PPARβ chimera / (UAS)5-tk-CAT reporter transfection assay in COS-1 cells; settings: 100 μM in DMSO
T1 construct: expressed in transfected cells; host or cells: COS-1
T1 sequence (P35396 210-438 limits assumed): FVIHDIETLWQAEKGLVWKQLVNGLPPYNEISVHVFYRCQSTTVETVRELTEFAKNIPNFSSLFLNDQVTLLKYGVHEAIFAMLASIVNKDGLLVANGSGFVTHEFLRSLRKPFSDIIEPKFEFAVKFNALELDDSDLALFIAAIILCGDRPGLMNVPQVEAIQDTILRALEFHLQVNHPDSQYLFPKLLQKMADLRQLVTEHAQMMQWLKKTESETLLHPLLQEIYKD
Procedure: (§1) COS-1 cells (American Type Culture Collection) were maintained in α-minimal essential media (Sigma) supplemented with 8% fetal calf serum (Gibco BRL), 0.2 mg/ml streptomycin and 200 U/ml penicillin. The pSG5-GAL4-PPAR chimera expression constructs, containing the ligand binding domain of mouse PPARα, β or γ, as well as the (UAS)5-tk-CAT reporter construct were kindly provided by Steven A. Kliewer (Glaxo Research Institute). At 75–90% confluence, COS-1 cells were co-transfected with GAL4-PPAR, (UAS)5-tk-CAT, and pSV-βGal (Promega) as described in Lehmann, J. M. et al., J. Biol. Chem. 270, 12953–12956 (1995). Twenty-four hours after transfection, the cells were treated with the indicated amounts of CLA, or a single 100 μM dose of 4-chloro-6-(2,3-xylindino)-2-pyrimidinylthio)-acetic acid (Wy 14,643; a hypolipidemic drug known as a peroxisome proliferator). After 6 hours of treatment, the cells were harvested and chloramphenicol acetyltransferase levels were assessed by ELISA (Gibco BRL) according to the manufacturer's instructions. Data is expressed relative to β-galactosidase activity. CLA used in this experiment was obtained from a commercially available mixture from NuChek Prep, Elysian Minn. The mixture contained about 41.2% by weight of a composition including cis,trans-9,11-octadecadienoic acid and trans,cis-9,11-octadecadienoic acid, about 44% by weight trans,cis-10,12-octadecadienoic acid, about 9.4% by weight cis,cis-10,12-octadecadienoic acid, about 1.3% by weight of a composition including trans,trans-9,11-octadecadienoic acid and trans,trans-10,12-octadecadienoic acid, about 1.1% by weight cis,cis-9,11-octadecadienoic acid, about 0.7% by weight linoleic acid and about 2.2% of other lipids as mentioned above.
In this example, certain PPAR subtypes are shown to be activated by CLA isomers. However, a 100 μM concentration of selected isomers of CLA were also utilized in the transfection assay to determine whether specific isomers of CLA could activate any of the PPAR subtypes.

[2] = biological target: T2, ligand binding domain of mouse PPARα (Mus musculus, UniProt P23204); assay: GAL4-PPARα chimera / (UAS)5-tk-CAT reporter transfection assay in COS-1 cells; settings: 100 μM in DMSO
T2 construct: expressed in transfected cells; host or cells: COS-1
T2 sequence (P23204 239-466 limits assumed): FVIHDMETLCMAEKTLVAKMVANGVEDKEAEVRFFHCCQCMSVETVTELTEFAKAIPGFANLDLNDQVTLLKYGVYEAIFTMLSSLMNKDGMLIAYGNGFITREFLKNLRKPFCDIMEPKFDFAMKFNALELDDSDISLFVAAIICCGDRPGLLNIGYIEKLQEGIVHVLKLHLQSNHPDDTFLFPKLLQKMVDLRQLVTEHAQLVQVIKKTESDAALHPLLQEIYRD
Procedure: as §1, with “The mixture contained about 41.2% by weight of a composition including cis,trans-9,11-octadecadienoic acid and trans,cis-9,11-octadecadienoic acid, about 44% by weight trans,cis-10,12-octadecadienoic acid, about 9.4% by weight cis,cis-10,12-octadecadienoic acid, about 1.3% by weight of a composition including trans,trans-9,11-octadecadienoic acid and trans,trans-10,12-octadecadienoic acid, about 1.1% by weight cis,cis-9,11-octadecadienoic acid, about 0.7% by weight linoleic acid and about 2.2% of other lipids as mentioned above.” left out

full length mouse PPARβ = biological target: T3, full length mouse PPARβ (Mus musculus, UniProt P35396); assay: Full length PPARβ PPRE-luciferase reporter assay in CV-1 cells; settings: 100 μM
T3 construct: constructs including full length mouse PPARα, PPARβ or PPARγ and a luciferase reporter gene; expressed in transfected cells; host or cells: CV-1 (African green monkey kidney cells)
T3 sequence (P35396 1-440): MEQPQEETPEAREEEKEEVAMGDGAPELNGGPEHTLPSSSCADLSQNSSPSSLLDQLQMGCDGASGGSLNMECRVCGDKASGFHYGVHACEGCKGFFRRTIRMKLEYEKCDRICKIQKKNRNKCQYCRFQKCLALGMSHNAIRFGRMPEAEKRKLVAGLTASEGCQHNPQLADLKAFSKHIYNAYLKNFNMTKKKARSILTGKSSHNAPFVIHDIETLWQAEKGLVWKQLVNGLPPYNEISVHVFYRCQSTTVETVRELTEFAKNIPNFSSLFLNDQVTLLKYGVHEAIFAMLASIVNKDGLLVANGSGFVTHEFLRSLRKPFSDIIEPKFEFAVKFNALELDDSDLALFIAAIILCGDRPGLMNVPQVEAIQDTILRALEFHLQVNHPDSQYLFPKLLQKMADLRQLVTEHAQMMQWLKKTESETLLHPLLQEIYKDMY
Procedure: (§2) The data in FIGS. 5–7 was generated utilizing constructs including full length mouse PPARα, PPARβ or PPARγ and a luciferase reporter gene. The CV-1 cell line (African green monkey kidney cells) used was obtained from American Type Culture Collection (#CCL-70). The cells were grown in Eagle minimal essential medium containing 10% fetal bovine serum (GIBCO). For each transfection involving PPARα, 625 ng pcDNA3-PPARα expression vector was used along with 250 ng of psV-GL-2-PPRE-luciferase reporter plasmid and 250 ng of pSV-β-galactosidase internal control plasmid. For each transfection involving PPARβ or PPARγ, either 625 ng pSG5-mouse-PPARβ or 625 ng pSG5-mouse-PPARγ was used along with 250 ng of the psV-GL2-PPRE-luciferase reporter plasmid and 250 ng of pSV-β-galactosidase internal control plasmid. Cells were transfected using Lipofect AMINE™ reagent (GIBCO) and phenol red-free, serum free medium (OptiMEM®I, GIBCO Life Technologies, Grand Island, N.Y.). Seven hours post-transfection, charcoal stripped serum (Cocalico Biologicals, Inc. Reamstown, Pa.) was added to the media (10% final concentration) for an overnight incubation (16 hours). […] The data were quantified relative to luciferase/β-galactosidase activity expressed as a ratio to vehicle-treated cells (0.1% DMSO).

full length mouse PPARα = biological target: T4, full length mouse PPARα (Mus musculus, UniProt P23204); assay: Full length PPARα PPRE-luciferase reporter assay in CV-1 cells; settings: 100 μM, six hours
T4 construct: constructs including full length mouse PPARα, PPARβ or PPARγ and a luciferase reporter gene; expressed in transfected cells; host or cells: CV-1 (African green monkey kidney cells)
T4 sequence (P23204 1-468): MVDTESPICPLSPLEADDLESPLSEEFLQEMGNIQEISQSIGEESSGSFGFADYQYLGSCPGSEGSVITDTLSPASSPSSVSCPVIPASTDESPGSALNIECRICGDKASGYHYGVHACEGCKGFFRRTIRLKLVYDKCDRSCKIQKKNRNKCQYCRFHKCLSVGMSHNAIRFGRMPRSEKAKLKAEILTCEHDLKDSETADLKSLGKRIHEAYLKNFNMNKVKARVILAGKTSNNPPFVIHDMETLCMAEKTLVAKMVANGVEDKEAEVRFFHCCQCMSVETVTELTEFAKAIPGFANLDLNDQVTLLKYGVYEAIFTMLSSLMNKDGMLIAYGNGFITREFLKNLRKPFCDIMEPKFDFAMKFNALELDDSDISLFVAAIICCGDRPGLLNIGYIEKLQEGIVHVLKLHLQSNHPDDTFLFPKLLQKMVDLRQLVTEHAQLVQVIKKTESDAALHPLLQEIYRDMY
Procedure: as §2

full length mouse PPARγ = biological target: T5, full length mouse PPARγ (Mus musculus, UniProt P37238); assay: Full length PPARγ PPRE-luciferase reporter assay in CV-1 cells; settings: 100 μM, six hours
T5 construct: constructs including full length mouse PPARα, PPARβ or PPARγ and a luciferase reporter gene; expressed in transfected cells; host or cells: CV-1 (African green monkey kidney cells)
T5 sequence (P37238 1-505): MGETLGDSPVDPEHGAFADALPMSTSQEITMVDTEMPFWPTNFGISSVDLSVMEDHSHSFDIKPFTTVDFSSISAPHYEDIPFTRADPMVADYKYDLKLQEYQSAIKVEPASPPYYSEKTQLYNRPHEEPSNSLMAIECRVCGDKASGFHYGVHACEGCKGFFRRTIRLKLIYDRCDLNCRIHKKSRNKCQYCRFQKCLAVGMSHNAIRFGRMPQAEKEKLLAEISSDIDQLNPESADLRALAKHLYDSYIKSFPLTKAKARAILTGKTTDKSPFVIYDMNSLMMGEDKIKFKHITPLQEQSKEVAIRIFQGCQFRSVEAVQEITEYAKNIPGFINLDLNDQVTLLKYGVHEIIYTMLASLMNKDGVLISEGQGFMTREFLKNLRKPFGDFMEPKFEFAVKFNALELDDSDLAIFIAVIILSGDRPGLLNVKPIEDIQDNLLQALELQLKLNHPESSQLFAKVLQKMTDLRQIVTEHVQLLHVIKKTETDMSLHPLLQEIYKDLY
Procedure: as §2

[3] = listed as trans,cis-10,12-octadecadienoic acid

activation of PPARβ, compared with CLA mixture (FIG. 4) [1]	activation of PPARα, compared with CLA mixture (FIG. 4) [2]	activation of full length PPARβ vs DMSO control / CLA mixture (FIG. 6) (full length mouse PPARβ; [3])	activation of full length PPARα vs DMSO control / CLA mixture (FIG. 5) (full length mouse PPARα; [3])	activation of full length PPARγ vs DMSO control (FIG. 7) (full length mouse PPARγ)	Structure (SMILES)	activation of full length PPARβ vs DMSO control / CLA mixture (FIG. 6) (full length mouse PPARβ)	activation of full length PPARα vs DMSO control / CLA mixture (FIG. 5) (full length mouse PPARα)
more than the CLA mixture	more than the CLA mixture	–	–	–	CCCCCC/C=C/C=C\CCCCCCCC(=O)O [9Z11E, cis,trans-9,11-octadecadienoic acid]	–	–
more than CLA mixture alone	–	–	–	–	CCCCCC/C=C/C=C/CCCCCCCC(=O)O [9E11E, trans,trans-9,11-octadecadienoic acid]	–	–
more than the CLA mixture	more than the CLA mixture	–	–	–	CCCCCC/C=C\C=C/CCCCCCCC(=O)O [9Z11Z, cis,cis-9,11-octadecadienoic acid]	–	–
–	–	activate	activate	activate	CCCCC/C=C\C=C\CCCCCCCCC(=O)O [trans,cis-10,12 CLA isomer, trans,cis-10,12-octadecadienoic acid]	significantly more than the CLA mixture alone	significantly more than the CLA mixture alone
